This test has as its target human GPIIb/IIIa receptor (Homo sapiens (Human), UniProt P05106+P08514). Kind of test: Affinity assay: displacement of tritiated reference compound from immobilized purified GPIIb/IIIa. It is filed as binding. How it is done:
Affinity assay: In the first step human GPIIb/IIIa purified from human platelets was immobilized on a 96-well solid plate. After 48 hours the plates were washed and the unspecific binding sites were blocked with Roti®-Block. 2. In the next step, the plates were simultaneously incubated with a tritium labeled known GPIIb/IIIa binder (^3H) mixed with increasing concentrations of the novel small molecule compounds (inhibitor, ^19F). The higher the affinity of the inhibitor, the lower the bound fraction of the tritiated known GPIIb/IIIa binder (^3H) was. The fraction of tritiated compound (^3H), which is not displaced by inhibitor, was measured in a microplate scintillation counter.
Purified human glycoprotein IIb/IIIa (20 mM Tris-HCl, 0.1 M NaCl, 0.1% Triton X-100, 1 mM CaCl2, 0.05% NaN3, 50% Glycerol, pH 7.4) was purchased from Enzyme Research Laboratories Inc. (South Bend, Ind.). The GPIIb/IIIa receptor was diluted in phosphate-buffered saline (Dulbecco's Phosphate Buffered Saline (D-PBS(+)) with calcium and magnesium, GIBCO®, Invitrogen) with 0.01% bovine serum albumin (albumin from bovine serum—lyophilized powder, ≧96%, Sigma).
The GPIIb/IIIa receptor was immobilized 48 hours at least (100 μL per well, 48 to maximum 96 hours) on a 96-well solid plate (Immuno Plate MaxiSorp™, Nunc, Roskilde, Denmark) at 277 K to 280 K and at a concentration of 0.1 μg per well to 1 μg per well. As negative control one row of the plate (n=8) was incubated just with 2% bovine serum albumin (200 μper well, albumin from bovine serum—lyophilized powder, […], Sigma, diluted in D-PBS(+)). After washing three times with the wash buffer (230 μL per well, Dulbecco's Phosphate Buffered Saline (D-PBS (−)) contains no calcium or magnesium, GIBCO®, Invitrogen) residual exposed plastic and unspecific binding sites were blocked by incubating the plate with a special blocking solution (200 μL per well, Roti®-Block, Carl Roth GmbH Co KG, Karlsruhe) containing 2% bovine serum albumin (Albumin from bovine serum—lyophilized powder, ≧96%, Sigma) 1 hour at room temperature.
After washing three times with the wash buffer 50 μL of tritiated reference compound (60 nM, ^3H-labeled compound) and 50 μL of novel compound (inhibitor, ^19F) were simultaneously added to each well and incubated for 1 hour at room temperature. Several concentrations of each novel inhibitor (0.1, 1, 2, 5, 10, 20 50, 100, 200, 500, 1000, 2000, 5000, 10000 and 20000 nM) were investigated. At each concentration of inhibitor a fourfold determination was performed.
The maximum value of tritiated reference compound was determined without addition of inhibitor (n=8). To exclude unspecific binding of ^3H-reference compound wells without glycoprotein receptors were used as negative controls (n=12, identically treated just without GP IIb/IIIa receptors).
After one hour the plate was washed three times with phosphate-buffered saline (200 μL per well, Dulbecco's Phosphate Buffered Saline (D-PBS(+)), GIBCO®, Invitrogen). Following 140 μL of liquid scintillation cocktail (MicroScint™ 40 aqueous, Perkin Elmer) was added to each well. After 15 min at room temperature the plates were measured at the microplate scintillation counter (TopCount NXT v2.13, Perkin Elmer, Packard Instrument Company).
In the first step human glycoprotein IIb/IIIa, which is purified from human platelets, was immobilized on a 96-well solid plate. After 48 hours at least the plates were washed and the unspecific binding sites were blocked with Roti®-Block. In the next step, the plates were simultaneously incubated with a tritium labeled reference compound and the novel small molecule compound (inhibitor). The higher the affinity of the inhibitor, the smaller is the bound fraction of reference compound. The fraction of tritiated reference compound, which is not displaced by inhibitor, was measured at a microplate scintillation counter.

The mark [1] stands for this setting: 19F compounds vs 60 nM 3H-labeled reference compound, 1 hour at room temperature, read-out: IC50 human.
The mark [2] stands for this setting: values repeated beside the 18F-compound, read-out: IC50 human (corresponding 19F-compound, Table 2).

Structures are written as SMILES. pIC50: −log10 of the molar value. Read-outs that look alike come from different tables or passages of the source.

Chain of human GPIIb/IIIa receptor (P08514 32-887): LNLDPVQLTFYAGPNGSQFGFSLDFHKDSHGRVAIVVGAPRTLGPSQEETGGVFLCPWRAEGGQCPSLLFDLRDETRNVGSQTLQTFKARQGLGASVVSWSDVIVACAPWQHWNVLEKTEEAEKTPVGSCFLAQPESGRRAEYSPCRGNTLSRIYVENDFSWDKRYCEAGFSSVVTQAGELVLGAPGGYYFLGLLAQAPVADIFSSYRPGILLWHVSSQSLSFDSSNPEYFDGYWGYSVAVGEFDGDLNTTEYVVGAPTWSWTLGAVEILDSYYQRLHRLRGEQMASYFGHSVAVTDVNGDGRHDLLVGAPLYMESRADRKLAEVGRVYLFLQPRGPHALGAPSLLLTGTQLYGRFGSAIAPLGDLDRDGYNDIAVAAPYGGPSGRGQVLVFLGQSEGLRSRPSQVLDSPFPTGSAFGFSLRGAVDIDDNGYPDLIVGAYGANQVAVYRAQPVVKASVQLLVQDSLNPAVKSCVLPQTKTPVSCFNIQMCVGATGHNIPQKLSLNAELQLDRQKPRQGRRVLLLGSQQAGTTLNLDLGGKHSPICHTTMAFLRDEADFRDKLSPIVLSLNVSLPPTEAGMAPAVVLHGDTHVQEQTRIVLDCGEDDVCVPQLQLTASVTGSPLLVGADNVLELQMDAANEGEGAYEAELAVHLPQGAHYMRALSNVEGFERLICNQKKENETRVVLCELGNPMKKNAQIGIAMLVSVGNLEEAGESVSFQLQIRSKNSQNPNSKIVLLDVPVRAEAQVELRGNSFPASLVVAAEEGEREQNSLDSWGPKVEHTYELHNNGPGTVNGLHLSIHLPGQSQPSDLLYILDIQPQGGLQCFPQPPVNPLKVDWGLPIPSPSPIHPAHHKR
Chain of human GPIIb/IIIa receptor (P08514 891-1039 partner): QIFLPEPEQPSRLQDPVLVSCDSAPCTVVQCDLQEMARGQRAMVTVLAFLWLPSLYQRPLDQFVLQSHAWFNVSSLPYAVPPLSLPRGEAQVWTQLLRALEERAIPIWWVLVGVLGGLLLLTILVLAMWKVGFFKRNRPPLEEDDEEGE
Chain of human GPIIb/IIIa receptor (P05106 27-788): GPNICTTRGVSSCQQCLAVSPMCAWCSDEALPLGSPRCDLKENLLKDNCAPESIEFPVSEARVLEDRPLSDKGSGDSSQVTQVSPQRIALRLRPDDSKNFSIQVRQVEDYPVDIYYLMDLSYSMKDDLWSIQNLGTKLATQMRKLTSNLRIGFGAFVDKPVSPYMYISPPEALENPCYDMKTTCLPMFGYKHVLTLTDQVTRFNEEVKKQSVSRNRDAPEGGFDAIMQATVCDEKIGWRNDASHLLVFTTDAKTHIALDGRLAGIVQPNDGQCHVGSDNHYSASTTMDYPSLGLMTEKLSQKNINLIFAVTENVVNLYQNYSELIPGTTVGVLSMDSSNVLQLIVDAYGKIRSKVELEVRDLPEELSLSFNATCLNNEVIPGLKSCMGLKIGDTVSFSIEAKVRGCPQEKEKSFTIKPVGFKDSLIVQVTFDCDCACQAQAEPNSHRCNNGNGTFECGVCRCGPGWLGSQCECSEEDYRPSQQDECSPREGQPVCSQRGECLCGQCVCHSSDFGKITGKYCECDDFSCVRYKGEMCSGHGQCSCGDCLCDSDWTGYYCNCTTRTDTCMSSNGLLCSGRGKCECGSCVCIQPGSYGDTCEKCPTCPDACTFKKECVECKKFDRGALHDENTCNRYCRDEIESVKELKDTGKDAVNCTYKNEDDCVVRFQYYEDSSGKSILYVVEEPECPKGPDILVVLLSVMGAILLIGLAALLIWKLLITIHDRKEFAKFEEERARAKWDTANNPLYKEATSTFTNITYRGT

Consider `O=C(O)C[C@H](NC(=O)[C@@H]1CCCN(C(=O)CCC2CCNCC2)C1)c1cncc(C=Cc2cccc(OCCF)c2)c1` (mixture of isomers) [Example 20, (E/Z)(3S)-3-(5-{2-[3-(2-Fluoroethoxy)phenyl]ethenyl}pyridin-3-yl)-3-[({(3R)-1-[3-(piperidin-4-yl)propanoyl]piperidin-3-yl}carbonyl)amino]propanoic acid], for which the pIC50 (usually the negative decadic logarithm of the IC50, by convention in mol/L) under setting [1] was 8.15.
The same measure, in the same setting: then `N#Cc1cc(COc2cncc([C@@H](CC(=O)O)NC(=O)[C@H]3CCCN(C(=O)CCC4CCNCC4)C3)c2)ccc1F` (stereo in doubt) [Example 12, (3R)-3-{5-[(3-Cyano-4-fluorobenzyl)oxy]pyridin-3-yl}-3-[({(3S)-1-[3-(piperidin-4-yl)propanoyl]piperidin-3-yl}carbonyl)amino]propanoic acid], with 8.10.
As to `O=C(O)C[C@H](NC(=O)[C@@H]1CCCN(C(=O)CCC2CCNCC2)C1)c1ccc(OCCF)cc1` [Example 2, (3S)-3-[4-(2-Fluoroethoxy)phenyl]-3-[({(3R)-1-[3-(piperidin-4-yl)propanoyl]piperidin-3-yl}carbonyl)amino]propanoic acid], the pIC50 under setting [1] was 7.54 and the pIC50 under setting [2] was 7.54.
Regarding `O=C(O)C[C@H](NC(=O)[C@@H]1CCCN(C(=O)CCC2CCNCC2)C1)c1cccc(OCCOCCOCCF)c1` [Example 4, (3S)-3-(3-{2-[2-(2-Fluoroethoxy)ethoxy]ethoxy}phenyl)-3-[({(3R)-1-[3-(piperidin-4-yl)propanoyl]piperidin-3-yl}carbonyl)amino]propanoic acid], the pIC50 under setting [1] was 7.08.
Still for that read-out and setting: then `O=C(O)C[C@H](NC(=O)[C@@H]1CCCN(C(=O)CCC2CCNCC2)C1)c1cncc(OCCOCCOCCF)c1` [Example 5, (3S)-3-(5-{2-[2-(2-Fluoroethoxy)ethoxy]ethoxy}pyridine-3-yl)-3-[({(3R)-1-[3-(piperidin-4-yl)propanoyl]piperidin-3-yl}carbonyl)amino]propanoic acid], with 7.80; and `O=C(O)C[C@H](NC(=O)[C@@H]1CCCN(C(=O)CCC2CCNCC2)C1)c1cncc(-c2cccc(OCCF)c2)c1` [Example 6, (3S)-3-{5-[3-(2-Fluoroethoxy)phenyl]pyridin-3-yl}-3-[({(3R)-1-[3-(piperidin-4-yl)propanoyl]piperidin-3-yl}carbonyl)amino]propanoic acid], with 7.80; and `O=C(O)C[C@H](NC(=O)[C@@H]1CCCN(C(=O)CCC2CCNCC2)C1)c1cncc(-c2ccccc2OCCF)c1` [Example 8, (3S)-3-{5-[2-(2-Fluoroethoxy)phenyl]pyridin-3-yl}-3-[({(3R)-1-[3-(piperidin-4-yl)propanoyl]piperidin-3-yl}carbonyl)amino]propanoic acid], with 7.85.
In the case of `N#Cc1cc(-c2cncc([C@H](CC(=O)O)NC(=O)[C@@H]3CCCN(C(=O)CCC4CCNCC4)C3)c2)ccc1F` [Example 9, (3S)-3-[5-(3-Cyano-4-fluorophenyl)pyridin-3-yl]-3-[({(3R)-1-[3-(piperidin-4-yl)propanoyl]piperidin-3-yl}carbonyl)amino]propanoic acid], the pIC50 under setting [1] is 7.68 and the pIC50 under setting [2] was 7.68.
In the case of `N#Cc1ccc(-c2cncc([C@H](CC(=O)O)NC(=O)[C@@H]3CCCN(C(=O)CCC4CCNCC4)C3)c2)cc1F` [Example 10, (3S)-3-[5-(4-Cyano-3-fluorophenyl)pyridin-3-yl]-3-[({(3R)-1-[3-(piperidin-4-yl)propanoyl]piperidin-3-yl}carbonyl)amino]propanoic acid], under setting [1], the pIC50 is 7.82.
Still for that read-out and setting: the figure for `O=C(O)C[C@H](NC(=O)[C@@H]1CCCN(C(=O)CCC2CCNCC2)C1)c1cncc(-c2ccc(F)c([N+](=O)[O-])c2)c1` [Example 11, (3S)-3-[5-(4-Fluoro-3-nitrophenyl)pyridin-3-yl]-3-[({(3R)-1-[3-(piperidin-4-yl)propanoyl]piperidin-3-yl}carbonyl)amino]propanoic acid] is 7.85; for `N#Cc1ccc(COc2cncc([C@H](CC(=O)O)NC(=O)[C@@H]3CCCN(C(=O)CCC4CCNCC4)C3)c2)cc1F` [Example 13, (3S)-3-{5-[(4-Cyano-3-fluorobenzyl)oxy]pyridin-3-yl}-3-[({(3R)-1-[3-(piperidin-4-yl)propanoyl]piperidin-3-yl}carbonyl)amino]propanoic acid] it is 8.15; for `N#Cc1ccc([C@H](CC(=O)O)NC(=O)[C@@H]2CCCN(C(=O)CCC3CCNCC3)C2)cc1F` [Example 14, (3S)-3-(4-Cyano-3-fluorophenyl)-3-[({(3R)-1-[3-(piperidin-4-yl)propanoyl]piperidin-3-yl}carbonyl)amino]propanoic acid] it is 7.82.
On the same count and under the same terms, then `O=C(O)C[C@H](NC(=O)[C@@H]1CCCN(C(=O)CCC2CCNCC2)C1)c1cncc(C#Cc2ccc(OCCF)cc2)c1` [Example 15, (3S)-3-(5-{[4-(2-Fluoroethoxy)phenyl]ethynyl}pyridin-3-yl)-3-[({(3R)-1-[3-(piperidin-4-yl)propanoyl]piperidin-3-yl}carbonyl)amino]propanoic acid], with 8.30; and `O=C(O)C[C@H](NC(=O)[C@@H]1CCCN(C(=O)CCC2CCNCC2)C1)c1cncc(C#Cc2cccc(OCCF)c2)c1` [Example 16, (3S)-3-(5-{[3-(2-Fluoroethoxy)phenyl]ethynyl}pyridin-3-yl)-3-[({(3R)-1-[3-(piperidin-4-yl)propanoyl]piperidin-3-yl}carbonyl)amino]propanoic acid], with 8.22; and `O=C(O)C[C@H](NC(=O)[C@@H]1CCCN(C(=O)CCC2CCNCC2)C1)c1cc(F)cc(-c2ccc(OCCF)cc2)c1` [Example 17, (3S)-3-[5-Fluoro-4′-(2-fluoroethoxy)biphenyl-3-yl]-3-[({(3R)-1-[3-(piperidin-4-yl)propanoyl]piperidin-3-yl}carbonyl)amino]propanoic acid], with 7.46.
On to `O=C(O)C[C@H](NC(=O)[C@@H]1CCCN(C(=O)CCC2CCNCC2)C1)c1cncc(CCc2ccc(OCCF)cc2)c1` [Example 18, (3S)-3-(5-{2-[4-(2-Fluoroethoxy)phenyl]ethyl}pyridin-3-yl)-3-[({(3R)-1-[3-(piperidin-4-yl)propanoyl]piperidin-3-yl}carbonyl)amino]propanoic acid], for which the pIC50 was 8.52 under setting [1] and 8.52 under setting [2].
For the compound `O=C(O)C[C@H](NC(=O)[C@@H]1CCCN(C(=O)CCC2CCNCC2)C1)c1cncc(CCc2cccc(OCCF)c2)c1` [Example 19, (3S)-3-(5-{2-[3-(2-Fluoroethoxy)phenyl]ethyl}pyridin-3-yl)-3-[({(3R)-1-[3-(piperidin-4-yl)propanoyl]piperidin-3-yl}carbonyl)amino]propanoic acid], the pIC50 by setting is: under setting [1], 8.52; under setting [2], 8.52.

(Values after patent US9345793B2, “Compounds for binding to the platelet specific glycoprotein IIB/IIIA and their use for imaging of thrombi” (PIRAMAL IMAGING SA, priority 2011, dated 2016).)
